Test [1] deals with S. aureus. The test can be described thus: MIC assay, S. aureus. In kind it is cell-based, Staphylococcus aureus.
Test [2] concerns E coli. The test can be described thus: MIC assay, E coli. The test is classed as cell-based.
For test [3], the system named is H. flu. The test is classed as cell-based, H. influenza. Conditions: H. flu.
Test [4] concerns E. faecalis. As to the kind of experiment: MIC assay, E. faecalis. The test is classed as cell-based, Enterococcus faecalis.
Test [5] concerns S. pneumo. As to the kind of experiment: MIC assay, S. pneumo. In kind it is cell-based, Streptococcus pneumoniae.

Values after ≈ are worked out from the molar mass of the structure shown.

`CO[C@H]1/C=C/O[C@@]2(C)Oc3c(C)c(O)c4c(=O)c(c5oc6cc(N7CC8CCC(C7)N8)cc(O)c6nc-5c4c3C2=O)NC(=O)/C(C)=C\C=C\[C@H](C)[C@H](O)[C@@H](C)[C@@H](O)[C@@H](C)[C@H](O)[C@@H]1C` [Compound 16, 25-O-deacetyl-3′-hydroxy-5′-(3,8-diazabicyclo[3.2.1]octan-3-yl)benzoxazinorifamycin]: the “MIC (μg/mL) S. aureus” value in test [1] stood at 0.015 µg/mL (≈ 0.0173 µM). The “MIC (μg/mL) E coli” value in test [2] amounted to 4 µg/mL (≈ 4.6 µM). Besides, in test [3], the “MIC (μg/mL) H. flu” value was found to be 0.25 µg/mL (≈ 0.288 µM). In addition, in test [4], the “MIC (μg/mL) E. faecalis” value turned out to be 0.12 µg/mL (≈ 0.138 µM). Further, the “MIC (μg/mL) S. pneumo.” value in test [5] came out at 0.001 µg/mL (≈ 0.00115 µM).
Consider `CO[C@H]1/C=C/O[C@@]2(C)Oc3c(C)c(O)c4c(=O)c(c5oc6cc(N7CCC(N(C)C)CC7)cc(O)c6nc-5c4c3C2=O)NC(=O)/C(C)=C\C=C\[C@H](C)[C@H](O)[C@@H](C)[C@@H](O)[C@@H](C)[C@H](OC(C)=O)[C@@H]1C` [Compound 17, 3′-hydroxy-5′-(4-N,N-dimethylamino-1-piperidinyl)benzoxazinorifamycin], for which the “MIC (μg/mL) S. aureus” value in test [1] turned out to be 0.008 µg/mL (≈ 0.00863 µM). Besides, the “MIC (μg/mL) E coli” value in test [2] came out at 8 µg/mL (≈ 8.63 µM). The “MIC (μg/mL) H. flu” value in test [3] is 1 µg/mL (≈ 1.08 µM). Besides, in test [4], the “MIC (μg/mL) E. faecalis” value turned out to be 1 µg/mL (≈ 1.08 µM). Moreover, in test [5], the “MIC (μg/mL) S. pneumo.” value was found to be 0.00012 µg/mL (≈ 0.000129 µM).
Take `CO[C@H]1/C=C/O[C@@]2(C)Oc3c(C)c(O)c4c(=O)c(c5oc6cc(N7CCC(N(C)C)CC7)cc(O)c6nc-5c4c3C2=O)NC(=O)/C(C)=C\C=C\[C@H](C)[C@H](O)[C@@H](C)[C@@H](O)[C@@H](C)[C@H](O)[C@@H]1C` [Compound 18, 25-O-deacetyl-3′-hydroxy-5′-(4-N,N dimethylamino-1-piperidinyl)benzoxazinorifamycin]: the “MIC (μg/mL) S. aureus” value in test [1] worked out at 0.004 µg/mL (≈ 0.00452 µM). In addition, the “MIC (μg/mL) E coli” value in test [2] is 4 µg/mL (≈ 4.52 µM). The “MIC (μg/mL) H. flu” value in test [3] came to 0.5 µg/mL (≈ 0.565 µM). Also, in test [4], the “MIC (μg/mL) E. faecalis” value was determined as 0.12 µg/mL (≈ 0.136 µM). The “MIC (μg/mL) S. pneumo.” value in test [5] is 0.00012 µg/mL (≈ 0.000136 µM).
For the compound `CCOC(=O)NC1CCN(c2ccc3nc4c5c6c7c(C)c(O)c5c(=O)c(c-4n(C)c3c2)NC(=O)/C(C)=C\C=C\[C@H](C)[C@H](O)[C@@H](C)[C@@H](O)[C@@H](C)[C@H](OC(C)=O)[C@H](C)[C@@H](OC)/C=C/O[C@@](C)(O7)C6=O)CC1` [Compound 19], the “MIC (μg/mL) S. aureus” value in test [1] was 0.004 µg/mL (≈ 0.00413 µM). The “MIC (μg/mL) E coli” value in test [2] is 4 µg/mL (≈ 4.13 µM). Also, the “MIC (μg/mL) H. flu” value in test [3] came out at 0.25 µg/mL (≈ 0.258 µM). In test [4], the “MIC (μg/mL) E. faecalis” value came out at 0.06 µg/mL (≈ 0.062 µM). Moreover, the “MIC (μg/mL) S. pneumo.” value in test [5] was 0.001 µg/mL (≈ 0.00103 µM).
The matching figures for `COC1C=COC2(C)Oc3c(C)c(O)c4c(=O)c(c5oc6cc(N7CC8C(N)C8C7)cc(O)c6nc-5c4c3C2=O)NC(=O)C(C)=CC=CC(C)C(O)C(C)C(O)C(C)C(O)C1C` [Compound 20, 25-O-deacetyl-3′-hydroxy-5′-[6-amino-(1R,5S)-3-azabicyclo[3.1.0]hex-3-yl]benzoxazinorifamycin]: 2 µg/mL (≈ 2.34 µM), above 8 µg/mL, above 8 µg/mL, above 8 µg/mL and 1 µg/mL (≈ 1.17 µM).
Regarding `CCOC(=O)NC1C2CN(c3cc(O)c4nc5c6c7c8c(C)c(O)c6c(=O)c(c-5oc4c3)NC(=O)C(C)=CC=CC(C)C(O)C(C)C(O)C(C)C(OC(C)=O)C(C)C(OC)C=COC(C)(O8)C7=O)CC21` (stereo not drawn) [Compound 21], the “MIC (μg/mL) S. aureus” value in test [1] was 0.004 µg/mL (≈ 0.00413 µM). Moreover, the “MIC (μg/mL) E coli” value in test [2] came to 4 µg/mL (≈ 4.13 µM). Besides, the “MIC (μg/mL) H. flu” value in test [3] turned out to be 0.5 µg/mL (≈ 0.516 µM). In test [4], the “MIC (μg/mL) E. faecalis” value was 0.12 µg/mL (≈ 0.124 µM). The “MIC (μg/mL) S. pneumo.” value in test [5] came out at 0.001 µg/mL (≈ 0.00103 µM).
The like results for `CO[C@H]1/C=C/O[C@@]2(C)Oc3c(C)c(O)c4c(=O)c(c5oc6cc(N7CCC(NC(=O)OC(C)C)CC7)cc(O)c6nc-5c4c3C2=O)NC(=O)/C(C)=C\C=C\[C@H](C)[C@H](O)[C@@H](C)[C@@H](O)[C@@H](C)[C@H](OC(C)=O)[C@@H]1C` [Compound 22] were, in that order, 0.015 µg/mL (≈ 0.0152 µM), above 8 µg/mL, 2 µg/mL (≈ 2.03 µM), 4 µg/mL (≈ 4.06 µM) and 0.00025 µg/mL (≈ 0.000254 µM).
In the case of `CO[C@H]1/C=C/O[C@@]2(C)Oc3c(C)c(O)c4c(=O)c(c5oc6cc(N7CCC(NS(=O)(=O)C(F)(F)F)CC7)cc(O)c6nc-5c4c3C2=O)NC(=O)/C(C)=C\C=C\[C@H](C)[C@H](O)[C@@H](C)[C@@H](O)[C@@H](C)[C@H](OC(C)=O)[C@@H]1C` [Compound 23], the “MIC (μg/mL) S. aureus” value in test [1] came to 0.015 µg/mL (≈ 0.0145 µM). Further, the “MIC (μg/mL) E coli” value in test [2] is above 8 µg/mL. Further, in test [3], the “MIC (μg/mL) H. flu” value amounted to 2 µg/mL (≈ 1.94 µM). Further, in test [4], the “MIC (μg/mL) E. faecalis” value is 4 µg/mL (≈ 3.88 µM). Also, in test [5], the “MIC (μg/mL) S. pneumo.” value worked out at 0.00012 µg/mL (≈ 0.000116 µM).
The matching figures for `CCCC(=O)NC1CCN(c2cc(O)c3nc4c5c6c7c(C)c(O)c5c(=O)c(c-4oc3c2)NC(=O)/C(C)=C\C=C\[C@H](C)[C@H](O)[C@@H](C)[C@@H](O)[C@@H](C)[C@H](OC(C)=O)[C@H](C)[C@@H](OC)/C=C/O[C@@](C)(O7)C6=O)CC1` [Compound 24, 3′-hydroxy-5′-[4-butanamide-1-piperidinyl]benzoxazinorifamycin]: 0.015 µg/mL (≈ 0.0155 µM), above 8 µg/mL, 2 µg/mL (≈ 2.06 µM), 2 µg/mL (≈ 2.06 µM) and 0.001 µg/mL (≈ 0.00103 µM).
Turning to `CO[C@H]1/C=C/O[C@@]2(C)Oc3c(C)c(O)c4c(=O)c(c5oc6cc(N7CCC(NS(C)(=O)=O)CC7)cc(O)c6nc-5c4c3C2=O)NC(=O)/C(C)=C\C=C\[C@H](C)[C@H](O)[C@@H](C)[C@@H](O)[C@@H](C)[C@H](OC(C)=O)[C@@H]1C` [Compound 25], the “MIC (μg/mL) S. aureus” value in test [1] was determined as 0.008 µg/mL (≈ 0.00819 µM). Besides, the “MIC (μg/mL) E coli” value in test [2] was above 8 µg/mL. Moreover, the “MIC (μg/mL) H. flu” value in test [3] came to 2 µg/mL (≈ 2.05 µM). In test [4], the “MIC (μg/mL) E. faecalis” value was determined as 2 µg/mL (≈ 2.05 µM). The “MIC (μg/mL) S. pneumo.” value in test [5] stood at 0.001 µg/mL (≈ 0.00102 µM).
For `CCCNC(=O)NC1CCN(c2cc(O)c3nc4c5c6c7c(C)c(O)c5c(=O)c(c-4oc3c2)NC(=O)/C(C)=C\C=C\[C@H](C)[C@H](O)[C@@H](C)[C@@H](O)[C@@H](C)[C@H](O)[C@H](C)[C@@H](OC)/C=C/O[C@@](C)(O7)C6=O)CC1` [Compound 26, 25-O-deacetyl-3′-hydroxy-5′-[4-propyluryl-1-piperidinyl]benzoxazinorifamycin], the “MIC (μg/mL) S. aureus” value in test [1] stood at 0.008 µg/mL (≈ 0.00849 µM). Further, the “MIC (μg/mL) E coli” value in test [2] was above 8 µg/mL. For the same compound, in test [3], the “MIC (μg/mL) H. flu” value was found to be 1 µg/mL (≈ 1.06 µM). In addition, the “MIC (μg/mL) E. faecalis” value in test [4] came out at 2 µg/mL (≈ 2.12 µM). Also, in test [5], the “MIC (μg/mL) S. pneumo.” value was 0.00012 µg/mL (≈ 0.000127 µM).
The like results for `CO[C@H]1/C=C/O[C@@]2(C)Oc3c(C)c(O)c4c(=O)c(c5oc6cc(N7CCC(NS(C)(=O)=O)CC7)cc(O)c6nc-5c4c3C2=O)NC(=O)/C(C)=C\C=C\[C@H](C)[C@H](O)[C@@H](C)[C@@H](O)[C@@H](C)[C@H](O)[C@@H]1C` [Compound 27] were, in that order, 0.015 µg/mL (≈ 0.016 µM), above 8 µg/mL, 0.12 µg/mL (≈ 0.128 µM), 1 µg/mL (≈ 1.07 µM) and 0.001 µg/mL (≈ 0.00107 µM).

Source of the values: patent US7271165B2, “Rifamycin analogs and uses thereof” (priority 2003, dated 2007).
